The source made the active and inactive calls. The rule behind the calls is not given here.
Columns and labels:
SW480 [1] = test: Cell cycle arrest in human SW480 cells assessed as accumulation at G1 phase at 5 uM after 48 hrs by propidium iodide staining-based flow cytometric analysis (reference value: 65.24%); assay type: functional
SW480 [2] = test: Antiproliferative activity against human SW480 cells after 24 hrs by MTT assay; assay type: functional, cell-based; conditions: SW480, 24 h
SW480 [3] = test: Antiproliferative activity against human SW480 cells after 48 hrs by MTT assay; assay type: functional, cell-based; conditions: SW480, 48 h
SW480 [4] = test: Induction of apoptosis in human SW480 cells assessed as early apoptotic cells after 48 hrs by annexin V-FITC/propidium iodide staining-based flow cytometric analysis; assay type: functional, cell-based
SW480 [5] = test: Cell cycle arrest in human SW480 cells assessed as accumulation at S phase at 20 uM after 48 hrs by propidium iodide staining-based flow cytometric analysis (reference value: 26.19%); assay type: functional
SW480 [6] = test: Cell cycle arrest in human SW480 cells assessed as accumulation at G1 phase at 20 uM after 48 hrs by propidium iodide staining-based flow cytometric analysis (reference value: 65.24%); assay type: functional
[7] = Antiproliferative activity against human DLD1 cells after 48 hrs by MTT assay; assay type: functional, cell-based; conditions: DLD-1, 48 h
SW480 [8] = test: Induction of ROS generation in human SW480 cells assessed as superoxide anion level at 20 uM after 48 hrs by DHE staining-based fluorescence assay (reference value: 101.21 No_Unit); assay type: functional
SW480 [9] = test: Cell cycle arrest in human SW480 cells assessed as accumulation at G2/M phase at 5 uM after 48 hrs by propidium iodide staining-based flow cytometric analysis (reference value: 8.57%); assay type: functional
SW480 [10] = test: Cell cycle arrest in human SW480 cells assessed as accumulation at G2/M phase at 10 uM after 48 hrs by propidium iodide staining-based flow cytometric analysis (reference value: 8.57%); assay type: functional
SW480 [11] = test: Induction of apoptosis in human SW480 cells assessed as late apoptotic cells at 10 uM after 48 hrs by annexin V-FITC/propidium iodide staining-based flow cytometric analysis; assay type: functional, cell-based
[12] = Antioxidant activity assessed as DPPH radical scavenging activity after 30 mins by ELISA reader analysis; assay type: physicochemical
SW480 [13] = test: Induction of apoptosis in human SW480 cells assessed as DNA fragmentation at 20 uM after 48 hrs by Hoechst 33258 staining-based fluorescence microscopic analysis; assay type: functional, cell-based
HepG2 = test: cells; conditions: Homo sapiens, HepG2, 48 h
HT-29 [14] = test: Antiproliferative activity against human HT-29 cells after 24 hrs by MTT assay; assay type: functional, cell-based; conditions: HT-29, 24 h
HT-29 [15] = test: Antiproliferative activity against human HT-29 cells after 72 hrs by MTT assay; assay type: functional, cell-based; conditions: HT-29, 72 h
SW480 [16] = test: Cell cycle arrest in human SW480 cells assessed as accumulation at G2/M phase at 20 uM after 48 hrs by propidium iodide staining-based flow cytometric analysis (reference value: 8.57%); assay type: functional
[17] = Antiproliferative activity against human DLD1 cells after 24 hrs by MTT assay; assay type: functional, cell-based; conditions: DLD-1, 24 h
SW480 [18] = test: Cell cycle arrest in human SW480 cells assessed as accumulation at G1 phase at 10 uM after 48 hrs by propidium iodide staining-based flow cytometric analysis (reference value: 65.24%); assay type: functional
SW480 [19] = test: Antiproliferative activity against human SW480 cells after 72 hrs by MTT assay; assay type: functional, cell-based; conditions: SW480, 72 h
SW480 [20] = test: Induction of ROS generation in human SW480 cells assessed as superoxide anion level at 5 uM after 48 hrs by DHE staining-based fluorescence assay (reference value: 101.21); assay type: functional
SW480 [21] = test: Cell cycle arrest in human SW480 cells assessed as accumulation at S phase at 5 uM after 48 hrs by propidium iodide staining-based flow cytometric analysis (reference value: 26.19%); assay type: functional
[22] = Antiproliferative activity against human DLD1 cells after 72 hrs by MTT assay; assay type: functional, cell-based; conditions: DLD-1, 72 h
SW480 [23] = test: Induction of ROS generation in human SW480 cells after 48 hrs by DHE staining-based fluorescence assay; assay type: functional, cell-based
SW480 [24] = test: Induction of ROS generation in human SW480 cells assessed as superoxide anion level at 10 uM after 48 hrs by DHE staining-based fluorescence assay (reference value: 101.21 No_Unit); assay type: functional
[25] = Cytotoxicity against mouse BNL-CL2 cells assessed as induction of cell death at 20 uM after 48 hrs by MTT assay; assay type: cell-based; conditions: bnl-cl2, 48 h
SW480 [26] = test: Induction of apoptosis in human SW480 cells assessed as chromatin condensation at 20 uM after 48 hrs by Hoechst 33258 staining-based fluorescence microscopic analysis; assay type: functional, cell-based
HT-29 [27] = test: cells; conditions: Homo sapiens, HT-29, 48 h
Description: Antiproliferative activity against human HT-29 cells after 48 hrs by MTT assay

SW480 [28] = test: Induction of apoptosis in human SW480 cells assessed as early apoptotic cells at 10 uM after 48 hrs by annexin V-FITC/propidium iodide staining-based flow cytometric analysis; assay type: functional, cell-based
[29] = Cytotoxicity against mouse BNL-CL2 cells after 48 hrs by MTT assay; assay type: cell-based; conditions: BNL CL.2, 48 h
SW480 [30] = test: Induction of apoptosis in human SW480 cells assessed as nuclear shrinkage at 20 uM after 48 hrs by Hoechst 33258 staining-based fluorescence microscopic analysis; assay type: functional, cell-based
SW480 [31] = test: Cell cycle arrest in human SW480 cells assessed as accumulation at S phase at 10 uM after 48 hrs by propidium iodide staining-based flow cytometric analysis (reference value: 26.19%); assay type: functional
[32] = Antioxidant activity assessed as ABTS radical scavenging activity after 6 mins by photometric analysis; assay type: physicochemical
SW480 [33] = test: Induction of apoptosis in human SW480 cells assessed as late apoptotic cells at 20 uM after 48 hrs by annexin V-FITC/propidium iodide staining-based flow cytometric analysis; assay type: functional, cell-based
SW480 [34] = test: Induction of apoptosis in human SW480 cells assessed as early apoptotic cells at 20 uM after 48 hrs by annexin V-FITC/propidium iodide staining-based flow cytometric analysis; assay type: functional, cell-based
SW480 [35] = test: Cell cycle arrest in human SW480 cells assessed as accumulation at S phase at 50 uM after 48 hrs by propidium iodide staining-based flow cytometric analysis; assay type: functional

CC(C)=CCC/C(C)=C/CC/C(C)=C/COc1cc2oc(-c3ccccc3)cc(=O)c2c(O)c1O
Activity (SW480 [1]): 68.64%
IC50 (SW480 [2]): > 20 µM
IC50 (SW480 [3]): 1.15 µM
Activity (SW480 [4]): Dose-dependent effect
Activity (SW480 [5]): 50%
Activity (SW480 [6]): 43.3%
IC50 [7]: 4.88 µM
Flu intensity (SW480 [8]): 192.86
Activity (SW480 [9]): 7.47%
Activity (SW480 [10]): 9.41%
Activity (SW480 [11]): Active
IC50 [12]: 24.6 µM
Activity (SW480 [13]): Active
IC50 (HepG2): > 20 µM
IC50 (HT-29 [14]): > 20 µM
IC50 (HT-29 [15]): 15.4 µM
Activity (SW480 [16]): 6.64%
IC50 [17]: 16.1 µM
Activity (SW480 [18]): 57.2%
IC50 (SW480 [19]): 1.26 µM
Flu intensity (SW480 [20]): 102.13
Activity (SW480 [21]): 23.88%
IC50 [22]: 6.86 µM
Activity (SW480 [23]): Dose-dependent effect
Flu intensity (SW480 [24]): 169.24
Activity [25]: < 20%
Activity (SW480 [26]): Active
IC50 (HT-29 [27]): 14.9 µM
Activity (SW480 [28]): Active
IC50 [29]: > 20 µM
Activity (SW480 [30]): Active
Activity (SW480 [31]): 33.33%
IC50 [32]: 24 µM

COc1c(O)cc(O)c2c(=O)cc(-c3ccccc3)oc12 [WOGONIN]
IC50 (SW480 [3]): 35.1 µM
IC50 [7]: 36.9 µM
IC50 (HepG2): 37.9 µM
IC50 (HT-29 [27]): 39.6 µM
IC50 [29]: > 40 µM

O=c1c(O)c(-c2ccc(O)c(O)c2)oc2cc(O)cc(O)c12 [QUERCETIN]
IC50 [12]: 8.41 µM
IC50 [32]: 7.26 µM

CC(C)=CCC/C(C)=C/COc1cc(O)c2c(=O)cc(-c3ccccc3)oc2c1
IC50 (SW480 [3]): > 20 µM
IC50 [7]: > 20 µM
IC50 (HepG2): > 20 µM
IC50 (HT-29 [27]): > 20 µM
IC50 [29]: > 20 µM

COc1cc2oc(-c3ccccc3)cc(=O)c2c(O)c1O
IC50 (SW480 [3]): 29.4 µM
IC50 [7]: 30.9 µM
IC50 [12]: 28.4 µM
IC50 (HepG2): > 40 µM
IC50 (HT-29 [27]): > 40 µM
IC50 [29]: > 40 µM
IC50 [32]: 20.2 µM

O=c1cc(-c2ccccc2)oc2cc(O)c(O)c(O)c12 [BAICALEIN]
Activity (SW480 [1]): 63.64%
IC50 (SW480 [2]): 16.9 µM
IC50 (SW480 [3]): 14.1 µM
Activity (SW480 [4]): inactive
Activity (SW480 [5]): 27.51%
Activity (SW480 [6]): 64.54%
IC50 [7]: 27.9 µM
Flu intensity (SW480 [8]): 98.79
Activity (SW480 [9]): 7.75%
Activity (SW480 [10]): 7.05%
IC50 [12]: 17.2 µM
Activity (SW480 [13]): Active
Activity (SW480 [33]): Active
IC50 (HT-29 [14]): > 20 µM
IC50 (HT-29 [15]): 18.4 µM
Activity (SW480 [16]): 7.95%
Activity (SW480 [34]): Active
IC50 [17]: > 20 µM
Activity (SW480 [18]): 64.29%
IC50 (SW480 [19]): 11.6 µM
Flu intensity (SW480 [20]): 104.84
Activity (SW480 [21]): 28.61%
IC50 [22]: > 20 µM
Activity (SW480 [23]): Dose-dependent effect
Flu intensity (SW480 [24]): 99.49
Activity (SW480 [35]): Active
Activity (SW480 [26]): Active
IC50 (HT-29 [27]): 18.1 µM
IC50 [29]: > 40 µM
Activity (SW480 [30]): Active
Activity (SW480 [31]): 28.65%
IC50 [32]: 15.5 µM

CC(C)=CCC/C(C)=C/CC/C(C)=C/COc1cc(O)c2c(=O)cc(-c3ccccc3)oc2c1
IC50 (SW480 [3]): > 20 µM
IC50 [7]: > 20 µM
IC50 (HepG2): > 20 µM
IC50 (HT-29 [27]): > 20 µM
IC50 [29]: > 20 µM

CCCCOc1cc2oc(-c3ccccc3)cc(=O)c2c(O)c1O
IC50 (SW480 [3]): > 20 µM
IC50 [7]: > 20 µM
IC50 [12]: 12.9 µM
IC50 (HepG2): > 20 µM
IC50 (HT-29 [27]): 19.5 µM
IC50 [29]: > 20 µM
IC50 [32]: 14 µM

Cc1c(C)c2c(c(C)c1O)CCC(C)(C(=O)O)O2 (stereo not drawn) [TROLOX]
IC50 [12]: 22.7 µM
IC50 [32]: 16.8 µM

O=c1[nH]cc(F)c(=O)[nH]1 [FLUOROURACIL]
IC50 (SW480 [3]): 32.7 µM
IC50 (HepG2): 40.2 µM
IC50 (HT-29 [27]): > 100 µM

O=C1O[C@H]([C@@H](O)CO)C(O)=C1O [ASCORBIC ACID]
IC50 [12]: 27.3 µM
IC50 [32]: 18.3 µM

O=c1cc(-c2ccccc2)oc2cc(O)cc(O)c12 [CHRYSIN]
IC50 (SW480 [3]): 31.1 µM
IC50 [7]: 18.6 µM
IC50 (HepG2): 16.5 µM
IC50 (HT-29 [27]): 19.5 µM
IC50 [29]: > 40 µM

CC(C)=CCOc1cc2oc(-c3ccccc3)cc(=O)c2c(O)c1O
IC50 (SW480 [3]): 8.6 µM
IC50 [7]: > 20 µM
IC50 [12]: 24 µM
IC50 (HepG2): > 20 µM
IC50 (HT-29 [27]): > 20 µM
IC50 [29]: > 20 µM
IC50 [32]: 18.8 µM

CC(C)=CCC/C(C)=C/COc1cc2oc(-c3ccccc3)cc(=O)c2c(O)c1O
IC50 (SW480 [3]): 2.84 µM
IC50 [7]: 9.77 µM
IC50 [12]: 24.3 µM
IC50 (HepG2): > 20 µM
IC50 (HT-29 [27]): 17 µM
IC50 [29]: > 20 µM
IC50 [32]: 20.4 µM

COc1cccc2c1C(=O)c1c(O)c3c(c(O)c1C2=O)C[C@@](O)(C(=O)CO)C[C@@H]3O[C@H]1C[C@H](N)[C@H](O)[C@H](C)O1 [DOXORUBICIN]
IC50 (SW480 [3]): 0.53 µM

COc1cc(O)c2c(=O)cc(-c3ccccc3)oc2c1 [TECHTOCHRYSIN]
IC50 (SW480 [3]): > 20 µM
IC50 [7]: > 20 µM
IC50 (HepG2): > 20 µM
IC50 (HT-29 [27]): > 20 µM
IC50 [29]: > 20 µM

Reference: ChEMBL document CHEMBL3751778, “Synthesis and biological evaluation of novel 7-O-lipophilic substituted baicalein derivatives as potential anticancer agents” (Medchemcomm, 2015)
